Here are results for 2 compounds from patent US20220242827A1, “PHENYLMETHYLPYRAZOLONE COMPOUND HAVING A NOVEL CRYSTAL FORM, AND METHOD FOR PRODUCING SAME” (SIA EMTEKO HOLDING, priority 2019, published 2022).

In brackets after ≈: the same amount, converted by molar mass.

What all share (assay type): physicochemical
The nature of data set [1]: Storage stability in climate chamber at 25° C. and 60% relative humidity for 24 months. Conditions: for pH: normalization 4.5-5.5; for Quantification: normalization more than 99.0; for Impurity 1: normalization not more than 0.1%; for Sum of impurities: normalization not more than 0.3%; for stability on storage (content of the basic substance, content of impurities, pH): 60% humidity. The method, then:
The improved stability of the resulting polymorphic form was confirmed by experiments in a climate chamber at 25° C. and 60% humidity.
Comparison of Critical Quality Indicators of Known and Novel Polymorphic Forms of FMP After 24 Months of Storage at 25° C. and 60% Relative Humidity

The next data set in a line: Solubility in water. The method, then: The solubility of the obtained samples was checked by dissolving in water with vigorous stirring for 30 minutes at 25° C.
Data set [2] is described as follows: Electrostatic adhesion model experiment in 316L stainless steel tank. Conditions: for surface area of the tank covered with the FMP crystals: 316L stainless steel tank, after thorough mixing and release. The method, then: The following model experiment was performed to test the ability of electrostatic adhesion of the new polymorphic form. The FMP sample was placed in a 316L stainless steel tank, similar to the steel used to make working parts of industrial pharmaceutical equipment. After thorough mixing in the tank, the PMF was released from it and the surface area of the tank covered with the FMP crystals was measured. For the known polymorphic form, this figure was 19.5%, for the new form—12.8%, which is about one third less.

The mark [3] stands for this setting: 24 months at 25° C. and 60% relative humidity.

As a reminder, the solubility is the concentration that dissolves in the medium under given conditions. Read a high solubility as much dissolved substance.

Turning to `CC1=NN(c2ccccc2)C(=O)C1` [A new form of FMP, 1-phenyl-3-methyl-5-pyrazolone], in data set [1] (0 months), the Description entry was “White”, the pH is 4.8, the Quantification was 99.8% and the “Impurity 1” value was found to be 0.03%. Besides, the Sum of impurities in data set [1] (0 months) is reported as 0.09%. For the same compound, in data set [1] (setting [3]), the Description result is given as “White”, the pH was found to be 4.8, the Quantification came to 99.7% and the “Impurity 1” value worked out at 0.04%. This compound displayed a Sum of impurities in data set [1] (setting [3]) of 0.10%. Besides, the “stability on storage (content of the basic substance, content of impurities, pH)” value in data set [1] (24 months, 25° C.) is given as “more stable”. Besides, the “stability on storage (content of the basic substance, content of impurities, pH)” value in data set [1] (24 months, 25° C., listed as resulting polymorphic form) is on record as “did not change its key characteristics”. Moreover, in data set [1] (24 months, 25° C., 60% relative humidity, versus known form), the “rate of impurity formation” value is “much lower”. For the same compound, in the data set “Solubility in water” (among samples #1 to #6), the “solubility (comparison among the samples)” value was “best”. In “Solubility in water” (water, 25 °C, thermodynamic from solid, dissolving in water with vigorous stirring for 30 minutes at 25° C.), this compound gave a solubility at 30 min of 300 µg/mL (≈ 1720 µM). Further, the “surface area of the tank covered with the FMP crystals” value in data set [2] is given as 12.8%. In addition, the “electrostatic index (comparison among the samples)” value in data set [2] (among samples #1 to #6) was “best”.
For `CC1=NN(c2ccccc2)C(=O)C1` [Known form of FMP, 1-phenyl-3-methyl-5-pyrazolone, reference compound], in data set [1] (0 months), the Description result is given as “White”, the pH came out at 4.7, the Quantification was found to be 99.8% and the “Impurity 1” value was 0.02%. Moreover, the Sum of impurities in data set [1] (0 months) is recorded as 0.07%. Moreover, in data set [1] (setting [3]), the Description entry is “White”, the pH was 4.6, the Quantification was 99.6% and the “Impurity 1” value turned out to be 0.08%. In addition, the Sum of impurities in data set [1] (setting [3]) was found to be 0.18%. In the data set “Solubility in water” (dissolving in water with vigorous stirring for 30 minutes at 25° C., listed as known forms), the solubility in water result is “less than 0.2 mg/ml”. The “surface area of the tank covered with the FMP crystals” value in data set [2] (listed as known polymorphic form) was 19.5%.
